The source of these data is patent US20160297833A1, “THIENOPYRIMIDINES AS MKNK1 AND MKNK2 INHIBITORS” (BAYER PHARMA AKTIENGESELLSCHAFT, priority 2013, published 2016).

In this assay the target is T1, human full-length MKNK1 (Homo sapiens, UniProt Q9BUB5, T385D).
T1 construct: GST (N); purchased Carna Biosciences 02-145; host or cells: insect cells (baculovirus expression system)
As to the kind of experiment: MKNK1 kinase high ATP assay (TR-FRET). It is filed as biochemical. As to conditions: for IC50: Table 1, MKNK1 kinase high ATP assay, 2 mM ATP, read-out: MKNK1 IC50; for Activity-Ratio MKNK1: Table 2, ratio of the IC50-value of an R-enantiomer and its corresponding S-enantiomer. On the procedure:
MKNK1 Kinase High ATP Assay
MKNK1-inhibitory activity at high ATP of compounds of the present invention after their preincubation with MKNK1 was quantified employing the TR-FRET-based MKNK1 high ATP assay as described in the following paragraphs.
As substrate for the kinase reaction the biotinylated peptide biotin-Ahx-[…] (C-terminus in amide form) was used, which can be purchased e.g. from the company Biosyntan (Berlin-Buch, Germany).
For the assay 50 nL of a 100 fold concentrated solution of the test compound in DMSO was pipetted into a black low volume 384 well microtiter plate (Greiner Bio-One, Frickenhausen, Germany), 2 μL of a solution of MKNK1 in aqueous assay buffer [50 mM HEPES pH 7.5, 5 mM MgCl2, 1.0 mM dithiothreitol, 0.005% (v/v) Nonidet-P40 (Sigma)] was added and the mixture was incubated for 15 min at 22° C. to allow pre-binding of the test compounds to the enzyme before the start of the kinase reaction. Then the kinase reaction was started by the addition of 3 μL of a solution of adenosine-tri-phosphate (ATP, 3.3 mM=>final conc. in the 5 μL assay volume is 2 mM) and substrate (0.1 μM=>final conc. in the 5 μL assay volume is 0.06 μM) in assay buffer and the resulting mixture was incubated for a reaction time of 30 min at 22° C. The concentration of MKNK1 was adjusted depending of the activity of the enzyme lot and was chosen appropriate to have the assay in the linear range, typical concentrations were in the range of 0.003 μg/mL. The reaction was stopped by the addition of 5 μL of a solution of TR-FRET detection reagents (5 nM streptavidine-XL665 [Cisbio Bioassays, Codolet, France] and 1 nM anti-ribosomal protein S6 (pSer236)-antibody from Invitrogen [#44921G] and 1 nM LANCE EU-W1024 labeled ProteinG [Perkin-Elmer, product no. AD0071]) in an aqueous EDTA-solution (100 mM EDTA, 0.1% (w/v) bovine serum albumin in 50 mM HEPES pH 7.5).
The resulting mixture was incubated for 1 h at 22° C. to allow the formation of complex between the phosphorylated biotinylated peptide and the detection reagents. Subsequently the amount of phosphorylated substrate was evaluated by measurement of the resonance energy transfer from the Eu-chelate to the streptavidine-XL. Therefore, the fluorescence emissions at 620 nm and 665 nm after excitation at 350 nm were measured in a TR-FRET reader, e.g. a Rubystar (BMG Labtechnologies, Offenburg, Germany) or a Viewlux (Perkin-Elmer). The ratio of the emissions at 665 nm and at 622 nm was taken as the measure for the amount of phosphorylated substrate.
For orientation: Time-resolved FRET reads energy transfer from a long-lived donor to a nearby acceptor.

T1 sequence (Q9BUB5 1-424 isoform Q9BUB5-2 T344D): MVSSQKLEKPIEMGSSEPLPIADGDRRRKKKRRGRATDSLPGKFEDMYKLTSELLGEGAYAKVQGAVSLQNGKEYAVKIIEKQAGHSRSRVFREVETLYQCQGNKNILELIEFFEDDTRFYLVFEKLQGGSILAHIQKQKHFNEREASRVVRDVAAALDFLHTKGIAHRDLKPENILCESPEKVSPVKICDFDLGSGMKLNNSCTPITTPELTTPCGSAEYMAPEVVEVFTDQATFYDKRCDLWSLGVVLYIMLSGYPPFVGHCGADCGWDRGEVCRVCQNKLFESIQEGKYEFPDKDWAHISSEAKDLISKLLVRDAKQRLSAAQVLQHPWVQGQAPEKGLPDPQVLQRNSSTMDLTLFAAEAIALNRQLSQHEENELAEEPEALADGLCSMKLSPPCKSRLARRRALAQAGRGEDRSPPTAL

The term IC50 denotes the concentration at which inhibition is half-maximal. With `CCN(C)C(=O)[C@H]1CCc2c(sc3ncnc(Nc4cc5cn[nH]c5cc4OC)c23)C1` [Example 24, (7S)—N-Ethyl-4-[(6-methoxy-1H-indazol-5-yl)amino]-N-methyl-5,6,7,8-tetrahydro[1]benzothieno[2,3-d]pyrimidine-7-carboxamide], the IC50 turned out to be 0.2 nM and the “Activity-Ratio MKNK1” value came to 39.1.

As to `CCN(C)C(=O)[C@@H]1CCc2c(sc3ncnc(Nc4cc5cn[nH]c5cc4OC)c23)C1` [Example 25, (7R)—N-Ethyl-4-[(6-methoxy-1H-indazol-5-yl)amino]-N-methyl-5,6,7,8-tetrahydro[1]benzothieno[2,3-d]pyrimidine-7-carboxamide], the IC50 was 8.3 nM.

For `COc1cc2[nH]ncc2cc1Nc1ncnc2sc3c(c12)CC[C@H](C(=O)N(C)C(C)C)C3` [Example 26, (7S)-4-[(6-Methoxy-1H-indazol-5-yl)amino]-N-methyl-N-(propan-2-yl)-5,6,7,8-tetrahydro[1]benzothieno[2,3-d]pyrimidine-7-carboxamide], the IC50 turned out to be 0.2 nM and the “Activity-Ratio MKNK1” value came out at 172.9.

`COc1cc2[nH]ncc2cc1Nc1ncnc2sc3c(c12)CC[C@@H](C(=O)N(C)C(C)C)C3` [Example 27, (7R)-4-[(6-Methoxy-1H-indazol-5-yl)amino]-N-methyl-N-(propan-2-yl)-5,6,7,8-tetrahydro[1]benzothieno[2,3-d]pyrimidine-7-carboxamide]: the concentration for half-maximal inhibition (IC50) worked out at 38.9 nM.

For the compound `COc1cc2[nH]ncc2cc1Nc1ncnc2sc3c(c12)CC[C@H](C(=O)N1CCOCC1)C3` [Example 28, {(7S)-4-[(6-Methoxy-1H-indazol-5-yl)amino]-5,6,7,8-tetrahydro[1]benzothieno[2,3-d]pyrimidin-7-yl}(morpholin-4-yl)methanone], the IC50 is 0.3 nM and the “Activity-Ratio MKNK1” value came to 26.1.

Take `COc1cc2[nH]ncc2cc1Nc1ncnc2sc3c(c12)CC[C@@H](C(=O)N1CCOCC1)C3` [Example 29, {(7R)-4-[(6-Methoxy-1H-indazol-5-yl)amino]-5,6,7,8-tetrahydro[1]benzothieno[2,3-d]pyrimidin-7-yl}(morpholin-4-yl)methanone]: the IC50 was 8.7 nM.

For the compound `COc1cc2[nH]ncc2cc1Nc1ncnc2sc3c(c12)CC[C@H](C(=O)N1CCOC[C@@H]1C)C3` [Example 30, {(7S)-4-[(6-Methoxy-1H-indazol-5-yl)amino]-5,6,7,8-tetrahydro[1]benzothieno[2,3-d]pyrimidin-7-yl}[(3S)-3-methylmorpholin-4-yl]methanone], the IC50 was 0.3 nM.

Take `COc1cc2[nH]ncc2cc1Nc1ncnc2sc3c(c12)CC[C@H](C(=O)N1CCOC[C@H]1C)C3` [Example 31, {(7S)-4-[(6-Methoxy-1H-indazol-5-yl)amino]-5,6,7,8-tetrahydro[1]benzothieno[2,3-d]pyrimidin-7-yl}[(3R)-3-methylmorpholin-4-yl]methanone]: the IC50 came to 0.8 nM.

With `COc1cc2[nH]ncc2cc1Nc1ncnc2sc3c(c12)CC[C@H](C(=O)N1CC2(COC2)C1)C3` [Example 32, {(7S)-4-[(6-Methoxy-1H-indazol-5-yl)amino]-5,6,7,8-tetrahydro[1]benzothieno[2,3-d]pyrimidin-7-yl}(2-oxa-6-azaspiro[3.3]hept-6-yl)methanone], the IC50 is 1 nM.

Consider `COc1cc2[nH]ncc2cc1Nc1ncnc2sc3c(c12)CC[C@H](C(=O)N1C[C@@H]2C[C@H]1CO2)C3` [Example 33, {(7S)-4-[(6-Methoxy-1H-indazol-5-yl)amino]-5,6,7,8-tetrahydro[1]benzothieno[2,3-d]pyrimidin-7-yl}[(1S,4S)-2-oxa-5-azabicyclo[2.2.1]hept-5-yl]methanone], for which the IC50 is 1.5 nM.

For the compound `COc1cc2[nH]ncc2cc1Nc1ncnc2sc3c(c12)CC[C@H](C(=O)N1C[C@H]2C[C@@H]1CO2)C3` [Example 34, {(7S)-4-[(6-Methoxy-1H-indazol-5-yl)amino]-5,6,7,8-tetrahydro[1]benzothieno[2,3-d]pyrimidin-7-yl}[(1R,4R)-2-oxa-5-azabicyclo[2.2.1]hept-5-yl]methanone], the IC50 was found to be 0.5 nM.

For the compound `COc1cc2[nH]ncc2cc1Nc1ncnc2sc3c(c12)CC[C@H](C(=O)N1CC(C#N)C1)C3` [Example 35, 1-({(7S)-4-[(6-Methoxy-1H-indazol-5-yl)amino]-5,6,7,8-tetrahydro[1]benzothieno[2,3-d]pyrimidin-7-yl}carbonyl)azetidine-3-carbonitrile], the IC50 was 0.7 nM.

`COc1cc2[nH]ncc2cc1Nc1ncnc2sc3c(c12)CC[C@H](C(=O)N1CC(C)(O)C1)C3` [Example 36, (3-hydroxy-3-Methylazetidin-1-yl){(7S)-4-[(6-methoxy-1H-indazol-5-yl)amino]-5,6,7,8-tetrahydro[1]benzothieno[2,3-d]pyrimidin-7-yl}methanone]: the IC50 came out at 0.5 nM.

In the case of `COc1cc2[nH]ncc2cc1Nc1ncnc2sc3c(c12)CC[C@H](C(=O)N(CCO)C1COC1)C3` [Example 37, (7S)—N-(2-Hydroxyethyl)-4-[(6-methoxy-1H-indazol-5-yl)amino]-N-(oxetan-3-yl)-5,6,7,8-tetrahydro[1]benzothieno[2,3-d]pyrimidine-7-carboxamide], the IC50 amounted to 0.3 nM.

In the case of `COc1cc2[nH]ncc2cc1Nc1ncnc2sc3c(c12)CC[C@H](C(=O)N(C)CCO)C3` [Example 38, (7S)—N-(2-Hydroxyethyl)-4-[(6-methoxy-1H-indazol-5-yl)amino]-N-methyl-5,6,7,8-tetrahydro[1]benzothieno[2,3-d]pyrimidine-7-carboxamide], the IC50 was 0.3 nM and the “Activity-Ratio MKNK1” value was determined as 28.1.

In the case of `COc1cc2[nH]ncc2cc1Nc1ncnc2sc3c(c12)CC[C@@H](C(=O)N(C)CCO)C3` [Example 39, (7R)—N-(2-Hydroxyethyl)-4-[(6-methoxy-1H-indazol-5-yl)amino]-N-methyl-5,6,7,8-tetrahydro[1]benzothieno[2,3-d]pyrimidine-7-carboxamide], the half-inhibitory concentration (IC50) came to 9.4 nM.

On to `CCN(CCO)C(=O)[C@H]1CCc2c(sc3ncnc(Nc4cc5cn[nH]c5cc4OC)c23)C1` [Example 40, (7S)—N-Ethyl-N-(2-hydroxyethyl)-4-[(6-methoxy-1H-indazol-5-yl)amino]-5,6,7,8-tetrahydro[1]benzothieno[2,3-d]pyrimidine-7-carboxamide], for which the concentration for half-maximal inhibition (IC50) worked out at 0.2 nM and the “Activity-Ratio MKNK1” value is given as 45.9.

For `CCN(CCO)C(=O)[C@@H]1CCc2c(sc3ncnc(Nc4cc5cn[nH]c5cc4OC)c23)C1` [Example 41, (7R)—N-Ethyl-N-(2-hydroxyethyl)-4-[(6-methoxy-1H-indazol-5-yl)amino]-5,6,7,8-tetrahydro[1]benzothieno[2,3-d]pyrimidine-7-carboxamide], the IC50 was 10.5 nM.

With `COCCN(CCO)C(=O)[C@H]1CCc2c(sc3ncnc(Nc4cc5cn[nH]c5cc4OC)c23)C1` [Example 42, (7S)—N-(2-Hydroxyethyl)-N-(2-methoxyethyl)-4-[(6-methoxy-1H-indazol-5-yl)amino]-5,6,7,8-tetrahydro[1]benzothieno[2,3-d]pyrimidine-7-carboxamide], the IC50 was 0.3 nM and the “Activity-Ratio MKNK1” value stood at 33.2.

Consider `COCCN(CCO)C(=O)[C@@H]1CCc2c(sc3ncnc(Nc4cc5cn[nH]c5cc4OC)c23)C1` [Example 43, (7R)—N-(2-Hydroxyethyl)-N-(2-methoxyethyl)-4-[(6-methoxy-1H-indazol-5-yl)amino]-5,6,7,8-tetrahydro[1]benzothieno[2,3-d]pyrimidine-7-carboxamide], for which the IC50 amounted to 8.9 nM.

Regarding `COc1cc2[nH]ncc2cc1Nc1ncnc2sc3c(c12)CC[C@H](C(=O)N1CC(N(C)C)C1)C3` [Example 44, [3-(Dimethylamino)azetidin-1-yl]{(7S)-4-[(6-methoxy-1H-indazol-5-yl)amino]-5,6,7,8-tetrahydro[1]benzothieno[2,3-d]pyrimidin-7-yl}methanone], the half-maximal inhibitory concentration (IC50) was determined as 0.2 nM.

As to `COc1cc2[nH]ncc2cc1Nc1ncnc2sc3c(c12)CC[C@H](C(=O)N1CC[C@H](N(C)C)C1)C3` [Example 45, [(3S)-3-(Dimethylamino)pyrrolidin-1-yl]{(7S)-4-[(6-methoxy-1H-indazol-5-yl)amino]-5,6,7,8-tetrahydro[1]benzothieno[2,3-d]pyrimidin-7-yl}methanone], the 50% inhibitory concentration (IC50) worked out at 0.2 nM.
